Reference: PubChem BioAssay (NCI)
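Method: 48-hour compound exposure of cells in 96-well plates, five concentrations, linear interpolation of endpoints. Here, GI50 denotes the concentration required for 50% inhibition of growth. At the TGI there is no net growth.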

Columns and labels:
Assay in all cases: growth of human tumour cells (NCI), 48 h
HCT-116 colon = system: HCT-116 colon
TK-10 renal = system: TK-10 renal
SN12C renal = system: SN12C renal
SK-MEL-2 melanoma = system: SK-MEL-2 melanoma
HL-60(TB) leukemia = system: HL-60(TB) leukemia
OVCAR-5 ovarian = system: OVCAR-5 ovarian
NCI-H522 lung = system: NCI-H522 lung
UACC-257 melanoma = system: UACC-257 melanoma
MDA-MB-231 breast = system: MDA-MB-231 breast
BT-549 breast = system: BT-549 breast

SMILES	TGI (HCT-116 colon)	TGI (TK-10 renal)	TGI (SN12C renal)	TGI (SK-MEL-2 melanoma)	TGI (HL-60(TB) leukemia)	TGI (OVCAR-5 ovarian)	TGI (NCI-H522 lung)	TGI (UACC-257 melanoma)	GI50 (MDA-MB-231 breast)	TGI (MDA-MB-231 breast)	GI50 (HCT-116 colon)	GI50 (TK-10 renal)	GI50 (SN12C renal)	GI50 (SK-MEL-2 melanoma)	GI50 (BT-549 breast)	TGI (BT-549 breast)	GI50 (OVCAR-5 ovarian)	GI50 (NCI-H522 lung)	GI50 (UACC-257 melanoma)	GI50 (HL-60(TB) leukemia)
OCC[N+]12CCCN1CCC2	> 100 µM	> 100 µM	> 100 µM	> 100 µM	> 100 µM	> 100 µM	> 100 µM	> 100 µM												
O=C(N/C(=C\c1cccc([N+](=O)[O-])c1)c1nc2ccccc2[nH]1)c1ccccc1	> 100 µM		> 100 µM	> 100 µM		> 100 µM	> 100 µM	> 100 µM												
CC(C)(C)c1cc(CCCCCCCC2(CCCCCCCc3cc(C(C)(C)C)cc(C(C)(C)C)c3)OC(COCCOCCCCCC#N)C(COCCOCCCCCC#N)O2)cc(C(C)(C)C)c1 (stereo not drawn)	> 100 µM	> 100 µM	> 100 µM	> 100 µM	> 100 µM	> 100 µM	> 100 µM	> 100 µM												
Oc1c(Cl)cc(Cl)cc1/C=N/Nc1nnc(N/N=C/c2cc(Cl)cc(Cl)c2O)c2ccccc12	> 100 µM	> 100 µM	> 100 µM	> 100 µM		> 100 µM	6.7 µM	> 100 µM	479 nM	> 100000 nM	433 nM	704 nM	543 nM	770 nM	549 nM	> 100 µM	957 nM	366 nM	1440 nM	
CCOc1cn(C2OC(CO)C(O)C2O)c(=O)[nH]c1=O (stereo not drawn)	> 100 µM	> 100 µM	> 100 µM	> 100 µM	> 100 µM	> 100 µM	> 100 µM	> 100 µM												
COc1cc(CNCCN2C(=O)c3ccc4c5c(ccc(c35)C2=O)C(=O)N(CCNCc2cc(OC)c(OC)c(OC)c2)C4=O)cc(OC)c1OC	0.428 µM	1.51 µM	1.38 µM	1.29 µM			0.496 µM		181 nM	605 nM	136 nM	780 nM	622 nM	586 nM	546 nM	1.22 µM		123 nM		
NS(=O)(=O)c1ccc(Nc2c3ccccc3nc3c(C(=O)N4CCN(CCO)CC4)cccc23)cc1	> 100 µM	> 100 µM	> 100 µM	> 100 µM	65.5 µM	> 100 µM	> 100 µM	> 100 µM												
COc1ccc(C(=O)c2c3cc(OC)c(OC)c(OC)c3cc[n+]2C)cc1	> 100 µM	> 100 µM	> 100 µM	52.2 µM		> 100 µM	62.4 µM													
Cn1c2c(c3ccccc31)CCN(CCCCN1CCN(c3ccccc3)CC1)C2=O	> 100 µM	> 90.4 µM	> 91.4 µM	> 77.6 µM	> 81.3 µM	80.9 µM	> 100 µM	26.6 µM												
O=C(O)c1cc(=O)cc(C(=O)O)o1	> 100 µM	> 100 µM		> 100 µM	> 100 µM	> 100 µM	> 100 µM	> 100 µM			> 100000 nM	> 100000 nM		> 100000 nM	> 100000 nM	> 100 µM	> 100000 nM	> 100000 nM	> 100000 nM	> 100 µM
CC(=O)O[C@H]1CCN2C(=O)C=CC(OCc3ccccc3)C12 (stereo partly drawn)		> 100 µM	> 100 µM	> 100 µM	> 100 µM	> 100 µM		> 100 µM												
CC(C)(C)C(=O)Nc1cccc2oc(-c3ccccc3)cc12			> 100 µM	> 100 µM	> 100 µM			> 100 µM												
Cc1ccc(/C=C(\NC(=O)c2ccccc2)c2nc3ccccc3[nH]2)cc1	> 100 µM	> 100 µM	> 100 µM	80.1 µM	56.8 µM	> 100 µM	> 100 µM	> 100 µM												
CSc1nc2nn(Cc3ccccc3)cc2c(=O)[nH]1	> 100 µM	> 100 µM	> 100 µM	> 100 µM	> 100 µM	> 100 µM	> 100 µM	> 100 µM												
CCN(CC)CC(C)C(=O)/C=C/c1ccc(C)cc1 (stereo not drawn)	3.16 µM	3.69 µM	3.02 µM		14.4 µM	28 µM		4.1 µM												
NS(=O)(=O)c1ccc(NC(=O)Cc2nc3ccccc3s2)cc1	31 µM	44.9 µM	30.9 µM	31.9 µM	45.7 µM	35.2 µM	33.2 µM	29.6 µM												
O=C(/C=C/c1ccccc1O)c1ccc([N+](=O)[O-])cc1	29 µM	77.2 µM	30.8 µM	66.8 µM	56.9 µM	41.1 µM	33.1 µM	> 100 µM												
